According to patent publication US4213994A, “Imidazolyl-(2)-carbinols having hypolipidemic action and process for preparing them” (Hoechst Aktiengesellschaft, priority 1971, dated 1980):
Like-named read-outs stand apart in the source and are kept apart here.

How the values were obtained:
[1] = acute toxicity, LD50 determined on the mouse upon oral administration; conditions: in vivo
Excerpt: While having an extremely low acute toxicity (cf. LD50 -values in Table I), the imidazolyl-(2)-carbinols reduce the lipid level in the serum and reduce artificially produced hyperlipidemia.
The values in brackets of the first column designate the LD50values
(§1) in g/kg, determined on the mouse upon oral administration. The values

[2] = tested on: serum lipid level; assay: Standard test on a male rat with normal serum lipid level (hypolipidemic action, 8 peroral administrations); assay type: in vivo; conditions: for change in vivo at 100 mg/kg / change in vivo at 30 mg/kg / change in vivo at 10 mg/kg: Rattus norvegicus, po, 192 h
Method: 1. Standard test on a male rat with normal serum lipid level
The period of time used for the experiment was 8 days. Administration was effected once daily with the aid of an oesophageal sound with doses of 100, 30 and 10 mg/kg, respectively. In general, blood was withdrawn prior to and after the treatment and the concentration of cholesterin was determined in the serum according to the method described by Lauber and Richterich and that of triglycerides according to the method described by Eggstein and Kreutz.
as §1
before the oblique stroke of the other columns denote the percentual
change of the posterior value (value after the treatment) referred to the
anterior value (starting value before the treatment) of the group of
preparations, the anterior value being 100%; the values behind the obliqu
stroke indicate the percentual change of the posterior value of the group
treated with reference to the posterior value (= 100%) of a placebo group

[3] = solubility in the usual solvents; assay type: physicochemical
[4] = tested on: triton-hyperlipidemia; assay: Triton-Hyperlipidemia of the male rat (inhibition of triton-hyperlipidemia); assay type: in vivo; conditions: 4-days pre-treatment; for Inhibition of triton-hyperlipidemia, Serum-cholesterin / Inhibition of triton-hyperlipidemia, Serum-triglyceride: 300 mg/kg Triton WR 1339 i.p., Triton control = 100%
Method: 2. Triton-Hyperlipidemia of the male rat
The influence of a 4-days pre-treatment with the compound of Example 1 on the formation of hyperlipidemia produced by i.p. application of 300 mg/kg of Triton ® WR 1339 was tested in comparison to a control group (=100%) which had only been treated with Triton.

[5] = tested on: dietetic hypercholesterinemia; assay: Dietetic hypercholesterinemia of the male rat (inhibition of dietetic hypercholesterinemia); assay type: in vivo; conditions: 100 mg/kg p.o. once daily
Method: 3. Dietetic hypercholesterinemia of the male rat
Hypercholesterinemia was produced by the addition of 2% of cholesterin and 20% of coconut fat (Palmin) to the normal fodder. The rise of the cholesterin level was determined by comparison with a control group (=100%) which had been given normal fodder only. (Line 1 in Table III). The animals of the preparation group obtained at the same time of the begin of the diet daily once 100 mg/kg p.o. of the compound of Example 1. […]

[6] = 100 mg/kg/day p.o., 8 administrations, value before the oblique stroke (anterior value = 100%), read-out: % change of Serum-Cholesterin, after treatment vs starting value before treatment
[7] = 100 mg/kg/day p.o., 8 administrations, value before the oblique stroke (anterior value = 100%), read-out: % change of Serum-triglycerides, after treatment vs starting value before treatment
[8] = 100 mg/kg/day p.o., 8 administrations, value behind the oblique stroke (placebo posterior value = 100%), read-out: % change of Serum-Cholesterin, treated group vs placebo group
[9] = 100 mg/kg/day p.o., 8 administrations, value behind the oblique stroke (placebo posterior value = 100%), read-out: % change of Serum-triglycerides, treated group vs placebo group
[10] = 30 mg/kg/day p.o., 8 administrations, value before the oblique stroke (anterior value = 100%), read-out: % change of Serum-Cholesterin, after treatment vs starting value before treatment
[11] = 30 mg/kg/day p.o., 8 administrations, value before the oblique stroke (anterior value = 100%), read-out: % change of Serum-triglycerides, after treatment vs starting value before treatment
[12] = 30 mg/kg/day p.o., 8 administrations, value behind the oblique stroke (placebo posterior value = 100%), read-out: % change of Serum-triglycerides, treated group vs placebo group
[13] = 30 mg/kg/day p.o., 8 administrations, value behind the oblique stroke (placebo posterior value = 100%), read-out: % change of Serum-Cholesterin, treated group vs placebo group
[14] = 10 mg/kg/day p.o., 8 administrations
[15] = read-out: % change of Serum-Cholesterin, after treatment vs starting value before treatment
[16] = read-out: % change of Serum-triglycerides, after treatment vs starting value before treatment
[17] = read-out: % change of Serum-triglycerides, treated group vs placebo group

Row | Compound | LD50 [1] | change in vivo at 100 mg/kg [2, 6] | change in vivo at 100 mg/kg [2, 7] | change in vivo at 100 mg/kg [2, 8] | change in vivo at 100 mg/kg [2, 9] | change in vivo at 30 mg/kg [2, 10] | change in vivo at 30 mg/kg [2, 11] | change in vivo at 30 mg/kg [2, 12] | also measured
1 | Cn1c(C(O)c2nccn2Cc2ccccc2)nc2ccccc21 (stereo not drawn) [Example 9, [1-Benzylimidazolyl-(2)]-[1-methylbenzimidazolyl-(2)]-carbinol] | > 4000 mg/kg | -21% | -40% | -11% | -24% | – | – | – | –
2 | OC(c1ccccc1)(c1ncc[nH]1)c1ncc[nH]1 [Example 7, Bis-[imidazolyl-(2)]-phenyl-carbinol] | > 4000 mg/kg | -7% | -18% | – | -18% | – | – | – | solubility (in words) [3]: not soluble or poorly soluble only in the usual solvents
3 | COc1ccc(C(O)c2nccn2-c2ccccc2)cc1OC (stereo not drawn) [Example 11, (3,4-Dimethoxy-phenyl)-[1-phenylimidazolyl-(2)]-carbinol] | > 4000 mg/kg | -24% | -32% | -3% | -21% | – | – | – | –
4 | Cn1c(C(O)(c2ccccc2)c2ccc(Cl)cc2Cl)nc2ccccc21 (stereo not drawn) [Example 6, Phenyl-(2,4-dichlorophenyl)-[1-methylbenzimidazolyl-(2)]-carbinol] | > 4000 mg/kg | -12% | -46% | -25% | -35% | -20% | -19% | -29% | –
5 | CC(O)c1nccn1Cc1ccccc1 (stereo not drawn) [Example 2, 1-[1-benzylimidazolyl-(2)]-ethanol] | 1120 mg/kg | -24% | – | -3% | -4% | – | – | – | –
6 | OC1(c2nccn2Cc2ccccc2)c2ccccc2-c2ccccc21 [Example 4, 9-[1-Benzylimidazolyl-(2)]-fluorene-9-ol] | > 4000 mg/kg | -16% | -48% | -21% | -37% | -11% | -25% | – | –
7 | OC(c1ccccc1)(c1nccn1Cc1ccccc1)c1nccn1Cc1ccccc1 [Example 1, Bis-[1-benzylimidazolyl-(2)]-phenyl-carbinole] | > 4000 mg/kg | – | – | – | – | -33% | -25% | -10% | Inhibition of triton-hyperlipidemia, Serum-cholesterin ([4]; 10 mg/kg/day p.o.): -31%; Inhibition of triton-hyperlipidemia, Serum-triglyceride ([4]; 10 mg/kg/day p.o.): -40%; Inhibition of triton-hyperlipidemia, Serum-cholesterin ([4]; 100 mg/kg/day p.o.): -28%; Inhibition of triton-hyperlipidemia, Serum-triglyceride ([4]; 100 mg/kg/day p.o.): -35%; change in vivo at 10 mg/kg ([2]; 10 mg/kg/day p.o., 8 administrations, value before the oblique stroke (anterior value = 100%), read-out: % change of Serum-Cholesterin, after treatment vs starting value before treatment): -10%; change in vivo at 10 mg/kg ([2]; 10 mg/kg/day p.o., 8 administrations, value behind the oblique stroke (placebo posterior value = 100%), read-out: % change of Serum-Cholesterin, treated group vs placebo group): -12%; change in vivo at 10 mg/kg ([2]; 10 mg/kg/day p.o., 8 administrations, value behind the oblique stroke (placebo posterior value = 100%), read-out: % change of Serum-triglycerides, treated group vs placebo group): -13%; change in vivo at 30 mg/kg [2, 13]: -10%; % change of the total cholesterin content in the serum, inhibition due to preparation (diet = 100%) ([5]; after 8 days): -23%; % change of the total cholesterin content in the serum, inhibition due to preparation (diet = 100%) ([5]; after 20 days): -19%; % change of the total cholesterin content in the serum, inhibition due to preparation (diet = 100%) ([5]; after 33 days): -9%
8 | CC(O)(c1ccc(OC(F)(F)C(F)Cl)cc1)c1nccn1Cc1ccccc1 (stereo not drawn) [Example 10, 1-[p-(1,1,2-trifluoro-2-chloro-ethoxy)-phenyl]-1-[1-benzylimidazolyl-(2)]-ethanol] | > 4000 mg/kg | -36% | -56% | -21% | -26% | – | – | – | –
9 | Cn1ccnc1C(O)(c1ccccc1)c1ccc(Cl)cc1Cl (stereo not drawn) [Example 5, Phenyl-(2,4-dichlorophenyl)-[1-methylimidazolyl-(2)]-carbinol] | > 4000 mg/kg | -19% | -37% | -32% | -35% | -23% | -1% | -17% | change in vivo at 30 mg/kg [2, 13]: -9%
10 | CCOC(=O)C(C)(C)Oc1ccc(Cl)cc1 [Clofibrate, 2-(p-chlorophenoxy)-isobutyric acid ethyl ester, reference compound] | 2000 to 2500 mg/kg | -22% | -30% | -13% | -30% | -5% | -4% | -7% | Inhibition of triton-hyperlipidemia, Serum-cholesterin (in words) ([4]; 10 mg/kg/day p.o.): ineffective; Inhibition of triton-hyperlipidemia, Serum-triglyceride (in words) ([4]; 10 mg/kg/day p.o.): ineffective; Inhibition of triton-hyperlipidemia, Serum-cholesterin ([4]; 100 mg/kg/day p.o.): -29%; Inhibition of triton-hyperlipidemia, Serum-triglyceride ([4]; 100 mg/kg/day p.o.): -16%; change of Serum-Cholesterin (in words) [2, 14]: ineffective; change of Serum-triglycerides (in words) [2, 14]: ineffective; change in vivo at 30 mg/kg [2, 13]: -8%
11 | CC(C)n1ccnc1C(C)(O)c1ccc(Cl)cc1 (stereo not drawn) [Example 8, Methyl-(p-chlorophenyl)-[1-isopropylimidazolyl-(2)]-carbinol] | > 4000 mg/kg | -14% | -39% | – | -21% | – | – | – | –
12 | CC(C)n1ccnc1C(O)C(Cl)(Cl)Cl (stereo not drawn) [Example 3, 1-[1-Isopropylimidazolyl-(2)]-2,2,2-trichloroethanol] | > 4000 mg/kg | – | – | – | – | – | – | – | change in vivo at 30 mg/kg [2, 15]: -16%; change in vivo at 100 mg/kg [2, 15]: -6%; change in vivo at 100 mg/kg ([2]; read-out: % change of Serum-Cholesterin, treated group vs placebo group): -18%; change in vivo at 30 mg/kg [2, 16]: -21%; change in vivo at 100 mg/kg [2, 16]: -57%; change in vivo at 30 mg/kg [2, 17]: -6%; change in vivo at 100 mg/kg [2, 17]: -30%
